For one assay, the target named is TbMCP-1 (Trypanosoma brucei, UniProt Q386R0). The assay can be described thus: Continuous fluorogenic (FRET) TbMCP-1 assay with Abz-RFFK(Dnp)-OH, primary and secondary screening. It counts as biochemical.
For assay [1], the target named is T. cruzi sterol 14-α demethylase (CYP51). More on the design: method as in https://pubchem.ncbi.nlm.nih.gov/compound/91800813. Conditions: ref https://pubchem.ncbi.nlm.nih.gov/compound/91800813; cited from earlier work.
In the next assay the test system is cruzipain. More on the design: method as in PMID 28935948. Conditions: at 25 μM; cited from earlier work.
Another assay concerns L. donovani. More on the design: method as in https://pubchem.ncbi.nlm.nih.gov/compound/91800813. Particulars: ref https://pubchem.ncbi.nlm.nih.gov/compound/91800813; cited from earlier work.

Chain of TbMCP-1 (Q386R0 entry or part of it): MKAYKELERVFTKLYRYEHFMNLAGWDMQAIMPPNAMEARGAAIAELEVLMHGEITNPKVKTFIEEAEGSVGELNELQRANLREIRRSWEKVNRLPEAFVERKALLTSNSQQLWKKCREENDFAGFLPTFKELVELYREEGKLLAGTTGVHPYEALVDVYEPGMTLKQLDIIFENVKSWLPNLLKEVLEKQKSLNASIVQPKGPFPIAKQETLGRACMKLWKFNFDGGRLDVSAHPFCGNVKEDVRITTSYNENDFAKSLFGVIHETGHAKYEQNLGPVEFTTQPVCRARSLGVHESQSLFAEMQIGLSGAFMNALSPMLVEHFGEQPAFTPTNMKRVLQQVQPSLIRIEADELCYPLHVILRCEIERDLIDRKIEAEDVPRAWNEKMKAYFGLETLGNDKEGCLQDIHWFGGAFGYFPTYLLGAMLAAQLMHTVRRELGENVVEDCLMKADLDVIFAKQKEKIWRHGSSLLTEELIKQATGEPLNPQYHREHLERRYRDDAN

Turning to `N#Cc1ccc(S(=O)(=O)N2CCN(Cc3cccc(-c4ccncc4)c3)CC2)cc1` [TCMDC-143620], the “potency on TbMCP-1 lower than on TcMCP-1” value on TbMCP-1 (TbMCP-1 vs TcMCP-1) is reported as ~ 7 fold. Besides, at TbMCP-1 (four-parameter Hill fit of dose-response curve), the “TbMCP-1 Hill Slope” value was -1,461. The “TbMCP-1 2º/1º ratio” value at TbMCP-1 (secondary (31,5 µM) / primary (25 µM) inhibition) is 2,14. Moreover, at TbMCP-1 (single inhibitor concentration 25 µM, read-out: TbMCP-1 Primary screening Inhibition (%)), the inhibition at 25 µM came to 45.2%. Also, the inhibition against TbMCP-1 (single inhibitor concentration 31,5 µM) stood at 96.6%. Moreover, the IC50 in assay [1] is 79 nM. In addition, in the assay on cruzipain, the cruzipain inhibition is reported as ~ 7,5%. Besides, the “activity on L. donovani” value in the assay with L. donovani is listed as “moderate but measurable activity”.

The values are drawn from PMC6675120, “Potent and selective inhibitors for M32 metallocarboxypeptidases identified from high-throughput screening of anti-kinetoplastid chemical boxes” (PLoS Neglected Tropical Diseases, 2019).
